In patent US12479856B2, “Pharmaceutical compounds for the treatment of complement mediated disorders” (Achillion Pharmaceuticals, Inc., priority 2019, dated 2025):

The compounds below were run against T1, Human complement C1s enzyme (Homo sapiens, UniProt P09871) (assay: Human C1s Enzyme Assay). Conditions: Table 1; C1s purified from human serum, 1.16 nM; substrate Z-L-Lys-SBzl; read-out: C1s Protease Activity.
T1 construct: purified from human serum, Complement Technology, Inc; purchased Complement Technology, Inc; host or cells: human serum (plasma-derived natural protein)
T1 sequence (P09871 438-688 limits assumed): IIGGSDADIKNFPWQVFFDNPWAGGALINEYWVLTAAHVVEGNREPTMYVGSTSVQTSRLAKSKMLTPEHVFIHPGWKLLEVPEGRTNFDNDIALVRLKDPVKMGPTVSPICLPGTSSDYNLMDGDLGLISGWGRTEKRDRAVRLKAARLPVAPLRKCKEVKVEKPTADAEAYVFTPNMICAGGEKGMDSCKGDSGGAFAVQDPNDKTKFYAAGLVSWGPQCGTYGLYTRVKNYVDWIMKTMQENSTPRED
T1 sequence (P09871 16-437 partner limits assumed): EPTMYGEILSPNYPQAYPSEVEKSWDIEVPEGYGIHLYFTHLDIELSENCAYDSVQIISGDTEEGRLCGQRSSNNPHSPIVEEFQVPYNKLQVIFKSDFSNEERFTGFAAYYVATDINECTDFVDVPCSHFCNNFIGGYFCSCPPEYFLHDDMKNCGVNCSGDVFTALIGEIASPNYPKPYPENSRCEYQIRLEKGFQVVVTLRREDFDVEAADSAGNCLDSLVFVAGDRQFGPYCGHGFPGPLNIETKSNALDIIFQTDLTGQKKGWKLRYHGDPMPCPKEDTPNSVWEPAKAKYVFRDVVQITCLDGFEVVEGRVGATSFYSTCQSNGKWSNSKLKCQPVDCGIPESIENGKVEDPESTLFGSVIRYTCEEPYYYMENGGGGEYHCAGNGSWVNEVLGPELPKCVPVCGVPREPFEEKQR
Type: biochemical
Method: Example 4. Human C1s Enzyme Assay
Human complement C1s enzyme (purified from human serum, Complement Technology, Inc.) at 1.16 nM final concentration is incubated with test compound at various concentrations for 5 min at room temperature in 50 mM Tris, 1 M NaCl, pH 7.5. A synthetic substrate Z-L-Lys-SBzl and DTNB (Ellman's reagent) are added to final concentrations of 100 μM each. Absorbance at 405 nm (A405) is recorded at 30 second intervals for 30 min using a microplate spectrophotometer. IC50 values are calculated by nonlinear regression of complement C1s reaction rates as a function of test compound concentration.

SMILES	IC50
NCCCCNC(=O)[C@@H]1CC2(CN1C(=O)CNC(=O)c1ccc(Oc3ccccc3)cc1)OCCO2 [Compound 25, (8S)—N-(4-Aminobutyl)-7-{2-[(4-phenoxyphenyl)formamido]acetyl}-1,4-dioxa-7-azaspiro[4.4]nonane-8-carboxamide]	> 1000 nM
NCCCCCNC(=O)[C@@H]1CC2(CN1C(=O)CNC(=O)c1ccc(Oc3ccccc3)cc1)OCCO2 [Compound 26, (8S)—N-(5-Aminopentyl)-7-{2-[(4-phenoxyphenyl)formamido]acetyl}-1,4-dioxa-7-azaspiro[4.4]nonane-8-carboxamide]	> 1000 nM
NCCCCCCNC(=O)[C@@H]1CC2(CN1C(=O)CNC(=O)c1ccc(Oc3ccccc3)cc1)OCCO2 [Compound 27, (8S)—N-(6-Aminohexyl)-7-{2-[(4-phenoxyphenyl)formamido]acetyl}-1,4-dioxa-7-azaspiro[4.4]nonane-8-carboxamide]	> 1000 nM
N=C(N)CCCNC(=O)[C@@H]1CCCN1C(=O)CNC(=O)c1ccc(Oc2ccccc2)cc1 [Compound 28, (S)-N-(4-amino-4-iminobutyl)-1-((4-phenoxybenzoyl)glycyl)pyrrolidine-2-carboxamide]	> 1000 nM
N=C(N)CCCCNC(=O)[C@@H]1CCCN1C(=O)CNC(=O)c1ccc(Oc2ccccc2)cc1 [Compound 29, (S)-N-(5-amino-5-iminopentyl)-1-((4-phenoxybenzoyl)glycyl)pyrrolidine-2-carboxamide]	> 1000 nM
C[C@H]1C[C@@H](C(=O)NCc2cc(C(=N)N)cs2)N(C(=O)CNC(=O)c2ccc(Oc3ccccc3)cc2)C1 [Compound 30, (2S,4S)—N-[(4-carbamimidoylthiophen-2-yl)methyl]-4-methyl-1-{2-[(4-phenoxyphenyl)formamido]acetyl}pyrrolidine-2-carboxamide]	< 100 nM
N=C(N)c1csc(CNC(=O)[C@@H]2C[C@@H](O)CN2C(=O)CNC(=O)c2ccc(Oc3ccccc3)cc2)c1 [Compound 31, (2S,4R)—N-[(4-carbamimidoylthiophen-2-yl)methyl]-4-hydroxy-1-{2-[(4-phenoxyphenyl)formamido]acetyl}pyrrolidine-2-carboxamide]	< 100 nM
CO[C@@H]1C[C@@H](C(=O)NCc2cc(C(=N)N)cs2)N(C(=O)CNC(=O)c2ccc(Oc3ccccc3)cc2)C1 [Compound 32, (2S,4R)—N-[(4-carbamimidoylthiophen-2-yl)methyl]-4-methoxy-1-{2-[(4-phenoxyphenyl)formamido]acetyl}pyrrolidine-2-carboxamide]	< 100 nM
CO[C@H]1C[C@@H](C(=O)NCc2cc(C(=N)N)cs2)N(C(=O)CNC(=O)c2ccc(Oc3ccccc3)cc2)C1 [Compound 33, (2S,4S)—N-[(4-carbamimidoylthiophen-2-yl)methyl]-4-methoxy-1-{2-[(4-phenoxyphenyl)formamido]acetyl}pyrrolidine-2-carboxamide]	< 100 nM
CO[C@H]1C[C@H](C(=O)CNC(=O)c2ccc(Oc3ccccc3)cc2)[C@H](C(=O)NCc2cc(C(=N)N)cs2)C1 [Compound 34, N-(2-((1S,2R,4S)-2-(((4-carbamimidoylthiophen-2-yl)methyl)carbamoyl)-4-methoxycyclopentyl)-2-oxoethyl)-4-phenoxybenzamide]	> 1000 nM
CO[C@H]1C[C@@H](C(=O)CNC(=O)c2ccc(Oc3ccccc3)cc2)[C@H](C(=O)NCc2cc(C(=N)N)cs2)C1 [Compound 35, N-(2-((1R,2R,4S)-2-(((4-carbamimidoylthiophen-2-yl)methyl)carbamoyl)-4-methoxycyclopentyl)-2-oxoethyl)-4-phenoxybenzamide]	100 to 1000 nM
N=C(N)c1csc(CNC(=O)[C@@H]2CCCN2C(=O)NNC(=O)c2ccc(Oc3ccccc3)cc2)c1 [Compound 36, (S)-N-((4-carbamimidoylthiophen-2-yl)methyl)-1-(2-(4-phenoxybenzoyl)hydrazine-1-carbonyl)pyrrolidine-2-carboxamide]	100 to 1000 nM

Same assay, conditions: Table 2; C1s purified from human serum, 1.16 nM; substrate Z-L-Lys-SBzl; read-out: C1s Protease Activity

SMILES	IC50
N=C(N)c1csc(CNC(=O)[C@@H]2CCCN2CCCCc2ccc(Oc3ccccc3)cc2)c1 [Compound 37, (S)-N-((4-carbamimidoylthiophen-2-yl)methyl)-1-(4-(4-phenoxyphenyl)butyl)pyrrolidine-2-carboxamide]	> 1000 nM
N=C(N)c1csc(CNC(=O)[C@@H]2CCCN2C(=O)COCc2ccc(Oc3ccccc3)cc2)c1 [Compound 38, (S)-N-((4-carbamimidoylthiophen-2-yl)methyl)-1-(2-((4-phenoxybenzyl)oxy)acetyl)pyrrolidine-2-carboxamide]	100 to 1000 nM
Cc1cc(C(=O)NCC(=O)N2CCC[C@H]2C(=O)NCc2cc(C(=N)N)cs2)ccc1Oc1ccccc1 [Compound 39, (S)-N-((4-carbamimidoylthiophen-2-yl)methyl)-1-((3-methyl-4-phenoxybenzoyl)glycyl)pyrrolidine-2-carboxamide]	< 100 nM
C=C(CCC(=O)N1CCC[C@H]1C(=O)NCc1cc(C(=N)N)cs1)c1ccc(Oc2ccccc2)cc1 [Compound 40, (S)-N-((4-carbamimidoylthiophen-2-yl)methyl)-1-(4-(4-phenoxyphenyl)pent-4-enoyl)pyrrolidine-2-carboxamide]	100 to 1000 nM
CCCc1cc(C(=O)NCC(=O)N2CCC[C@H]2C(=O)NCc2cc(C(=N)N)cs2)ccc1Oc1ccccc1 [Compound 41, (S)-N-((4-carbamimidoylthiophen-2-yl)methyl)-1-((4-phenoxy-3-propylbenzoyl)glycyl)pyrrolidine-2-carboxamide]	< 100 nM
CCCCCc1cc(C(=O)NCC(=O)N2CCC[C@H]2C(=O)NCc2cc(C(=N)N)cs2)ccc1Oc1ccccc1 [Compound 42, (S)-N-((4-carbamimidoylthiophen-2-yl)methyl)-1-((3-pentyl-4-phenoxybenzoyl)glycyl)pyrrolidine-2-carboxamide]	< 100 nM
CCCCc1cc(C(=O)NCC(=O)N2CCC[C@H]2C(=O)NCc2cc(C(=N)N)cs2)ccc1Oc1ccccc1 [Compound 43, (S)-1-((3-butyl-4-phenoxybenzoyl)glycyl)-N-((4-carbamimidoylthiophen-2-yl)methyl)pyrrolidine-2-carboxamide]	< 100 nM
N=C(N)c1csc(CNC(=O)[C@@H]2CCCN2C(=O)CCC2(c3ccc(Oc4ccccc4)cc3)CC2)c1 [Compound 44, (S)-N-((4-carbamimidoylthiophen-2-yl)methyl)-1-(3-(1-(4-phenoxyphenyl)cyclopropyl)propanoyl)pyrrolidine-2-carboxamide]	> 1000 nM
Cc1cc(C(=O)NCC(=O)N2CC3(CCCC3)C[C@H]2C(=O)NCc2cc(C(=N)N)cs2)ccc1Oc1ccccc1 [Compound 46, (S)-N-((4-carbamimidoylthiophen-2-yl)methyl)-2-((3-methyl-4-phenoxybenzoyl)glycyl)-2-azaspiro[4.4]nonane-3-carboxamide]	< 100 nM
Cc1cc(C(=O)NCC(=O)N2CC3(C[C@H]2C(=O)NCc2cc(C(=N)N)cs2)OCCO3)ccc1Oc1ccccc1 [Compound 47, (S)-N-((4-carbamimidoylthiophen-2-yl)methyl)-7-((3-methyl-4-phenoxybenzoyl)glycyl)-1,4-dioxa-7-azaspiro[4.4]nonane-8-carboxamide]	< 100 nM
Cc1cc(C(=O)NCC(=O)N2[C@H]3C[C@@]3(C)C[C@H]2C(=O)NCc2cc(C(=N)N)cs2)ccc1Oc1ccccc1 [Compound 48, (1S,3S,5S)-N-((4-carbamimidoylthiophen-2-yl)methyl)-5-methyl-2-((3-methyl-4-phenoxybenzoyl)glycyl)-2-azabicyclo[3.1.0]hexane-3-carboxamide]	< 100 nM
Cc1cc(C(=O)NCC(=O)N2CC3(C[C@H]2C(=O)NCc2nc(C(=N)N)cs2)OCCO3)ccc1Oc1ccccc1 [Compound 49, (S)-N-((4-carbamimidoylthiazol-2-yl)methyl)-7-((3-methyl-4-phenoxybenzoyl)glycyl)-1,4-dioxa-7-azaspiro[4.4]nonane-8-carboxamide]	< 100 nM
Cc1cc(C(=O)NCC(=O)N2CC3(C[C@H]2C(=O)NCc2nc(C(=N)N)co2)OCCO3)ccc1Oc1ccccc1 [Compound 51, (S)-N-((4-carbamimidoyloxazol-2-yl)methyl)-7-((3-methyl-4-phenoxybenzoyl)glycyl)-1,4-dioxa-7-azaspiro[4.4]nonane-8-carboxamide]	< 100 nM
N=C(N)c1csc(CNC(=O)[C@@H]2CCCN2C(=O)CCC(=O)c2ccc(Oc3ccccc3)cc2)c1 [Compound 52, (S)-N-((4-carbamimidoylthiophen-2-yl)methyl)-1-(4-oxo-4-(4-phenoxyphenyl)butanoyl)pyrrolidine-2-carboxamide]	< 100 nM
